In PubChem BioAssay AID1845199 (Molecular Pharmacology Branch, DTP, NCI, 2023):
“And” between values parts separate entries of the source, which are not always exact repeats. Equal values may be shown once. Values belong to the molecule of their own block, whether it stands above or below them.

Tested on: 556581-035-R-J1 tumor spheroid viability, % test/control
Assay: Anticancer human tumor 556581-035-R-J1 patient-derived ovarian carcinoma cell line growth inhibition
Settings: spheroids with HUVEC and MSC; for viability, T/C: stronger effect = lower value
In short: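 Complex spheroids of malignant cells with endothelial cells and mesenchymal stem cells; agents alone or combined, from near clinical Cmax (or 10 microM if unknown) down in half-log steps, 0.25% DMSO final.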

[1] = curve of first compound, second compound 1 µM
[2] = curve of first compound, second compound 3.16 µM
[3] = curve of first compound, second compound 10 µM
[4] = curve of first compound, second compound 31.6 µM
[5] = curve of first compound, second compound 100 µM
[6] = second compound 1 µM, first compound 0.00949 µM
[7] = second compound 1 µM, first compound 0.03 µM
[8] = second compound 1 µM, first compound 0.0949 µM
[9] = second compound 1 µM, first compound 0.3 µM
[10] = second compound 1 µM, first compound 0.949 µM
[11] = second compound 1 µM, first compound 3 µM
[12] = second compound 3.16 µM, first compound 0.00949 µM
[13] = second compound 3.16 µM, first compound 0.03 µM
[14] = second compound 3.16 µM, first compound 0.0949 µM
[15] = second compound 3.16 µM, first compound 0.3 µM
[16] = second compound 3.16 µM, first compound 0.949 µM
[17] = second compound 3.16 µM, first compound 3 µM
[18] = second compound 10 µM, first compound 0.00949 µM
[19] = second compound 10 µM, first compound 0.03 µM
[20] = second compound 10 µM, first compound 0.0949 µM
[21] = second compound 10 µM, first compound 0.3 µM
[22] = second compound 10 µM, first compound 0.949 µM
[23] = second compound 10 µM, first compound 3 µM
[24] = second compound 31.6 µM, first compound 0.00949 µM
[25] = second compound 31.6 µM, first compound 0.03 µM
[26] = second compound 31.6 µM, first compound 0.0949 µM
[27] = second compound 31.6 µM, first compound 0.3 µM
[28] = second compound 31.6 µM, first compound 0.949 µM
[29] = second compound 31.6 µM, first compound 3 µM
[30] = second compound 100 µM, first compound 0.00949 µM
[31] = second compound 100 µM, first compound 0.03 µM
[32] = second compound 100 µM, first compound 0.0949 µM
[33] = second compound 100 µM, first compound 0.3 µM
[34] = second compound 100 µM, first compound 0.949 µM
[35] = second compound 100 µM, first compound 3 µM
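Also: spheroids exposed to compounds for 7 days before viability read.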

SMILES: CC1COCCN1c1cc(-c2ccnn2C)c2ccnc(-c3ccn[nH]3)c2n1 (stereo not drawn) + COc1cc2c(cc1O)CCNC21CSC2c3c(OC(C)=O)c(C)c4c(c3C(COC1=O)N1C(O)C3Cc5cc(C)c(OC)c(O)c5C(C21)N3C)OCO4
IC50 (curve of first compound, second compound 30 pM): 786 nM | IC50 (curve of first compound, second compound 94.9 pM): 426 nM | IC50 (curve of first compound, second compound 0.0003 µM): 59.2 nM | IC50 (curve of first compound, second compound 0.000949 µM): < 31.6 nM | IC50 (curve of first compound, second compound 0.003 µM): < 31.6 nM | viability, T/C (second compound 30 pM, first compound 0.0316 µM): 93.9% | viability, T/C (second compound 30 pM, first compound 0.1 µM): 74.6% | viability, T/C (second compound 30 pM, first compound 0.316 µM): 59.1% | viability, T/C (second compound 30 pM, first compound 1 µM): 48.5% | viability, T/C (second compound 30 pM, first compound 3.16 µM): 38.2% | viability, T/C (second compound 30 pM, first compound 10 µM): 34.4% | viability, T/C (second compound 94.9 pM, first compound 0.0316 µM): 73.7% | viability, T/C (second compound 94.9 pM, first compound 0.1 µM): 62.5% | viability, T/C (second compound 94.9 pM, first compound 0.316 µM): 51.8% | viability, T/C (second compound 94.9 pM, first compound 1 µM): 44.2% | viability, T/C (second compound 94.9 pM, first compound 3.16 µM): 38% | viability, T/C (second compound 94.9 pM, first compound 10 µM): 34.4% | viability, T/C (second compound 0.0003 µM, first compound 0.0316 µM): 53.6% | viability, T/C (second compound 0.0003 µM, first compound 0.1 µM): 45.7% | viability, T/C (second compound 0.0003 µM, first compound 0.316 µM): 43.1% | viability, T/C (second compound 0.0003 µM, first compound 1 µM): 43.8% | viability, T/C (second compound 0.0003 µM, first compound 3.16 µM): 37.6% | viability, T/C (second compound 0.0003 µM, first compound 10 µM): 32.3% | viability, T/C (second compound 0.000949 µM, first compound 0.0316 µM): 7.45% | viability, T/C (second compound 0.000949 µM, first compound 0.1 µM): 4.92% | viability, T/C (second compound 0.000949 µM, first compound 0.316 µM): 5.53% | viability, T/C (second compound 0.000949 µM, first compound 1 µM): 6.39% | viability, T/C (second compound 0.000949 µM, first compound 3.16 µM): 3.31% | viability, T/C (second compound 0.000949 µM, first compound 10 µM): 0.59% | viability, T/C (second compound 0.003 µM, first compound 0.0316 µM): 0.82% | viability, T/C (second compound 0.003 µM, first compound 0.1 µM): 0.83% | viability, T/C (second compound 0.003 µM, first compound 0.316 µM): 1.19% | viability, T/C (second compound 0.003 µM, first compound 1 µM): 0.43% | viability, T/C (second compound 0.003 µM, first compound 3.16 µM): 0.43% | viability, T/C (second compound 0.003 µM, first compound 10 µM): 0.72%

SMILES: Cc1sc2c(c1C)C(c1ccc(Cl)cc1)=NC(CC(=O)Nc1ccc(O)cc1)c1nnc(C)n1-2 (stereo not drawn) + Cn1nnc2c(C(N)=O)ncn2c1=O
IC50 [1]: > 3000 nM | IC50 [2]: > 3000 nM | IC50 [3]: > 3000 nM | IC50 [4]: > 3000 nM | IC50 [5]: 2700 nM | viability, T/C [6]: 112% | viability, T/C [7]: 95.6% | viability, T/C [8]: 82% | viability, T/C [9]: 76.4% | viability, T/C [10]: 68% | viability, T/C [11]: 64.5% | viability, T/C [12]: 101% | viability, T/C [13]: 97.6% | viability, T/C [14]: 84.8% | viability, T/C [15]: 75.6% | viability, T/C [16]: 65.5% | viability, T/C [17]: 61.2% | viability, T/C [18]: 98% | viability, T/C [19]: 94.6% | viability, T/C [20]: 82.6% | viability, T/C [21]: 72.6% | viability, T/C [22]: 68.1% | viability, T/C [23]: 57.5% | viability, T/C [24]: 96.9% | viability, T/C [25]: 93.9% | viability, T/C [26]: 82.2% | viability, T/C [27]: 70.7% | viability, T/C [28]: 65.1% | viability, T/C [29]: 54.3% | viability, T/C [30]: 99.5% | viability, T/C [31]: 99.2% | viability, T/C [32]: 79.9% | viability, T/C [33]: 71.5% | viability, T/C [34]: 59.1% | viability, T/C [35]: 48.5%

SMILES: CNCc1ccc(-c2cc(-c3nc(-c4ccc(S(=O)(=O)C(C)C)cc4)cnc3N)on2)cc1
viability, T/C (compound 0.00949 µM): 107% and 97.6% and 104% | viability, T/C (compound 0.03 µM): 105% and 95.6% and 111% | viability, T/C (compound 0.0949 µM): 103% and 115% and 108% | viability, T/C (compound 0.3 µM): 106% and 112% and 108% | viability, T/C (compound 0.949 µM): 66.6% and 80.3% and 75.4% | viability, T/C (compound 3 µM): 20.2% and 19.4% and 27.6% | IC50 (curve of compound): 1430 nM and 1680 nM and 1750 nM

IC50 (compound alone, run of 10/17/2019): 121 nM [middle of 4 runs] | IC50 (compound alone, run of 10/25/2019): 80.7 nM [middle of 5 runs]
SMILES: CC[C@@]1(O)C(=O)OCc2c1cc1n(c2=O)Cc2cc3c(CN(C)C)c(O)ccc3nc2-1
viability, T/C (compound 0.003 µM): 101% [middle of 10 runs] | viability, T/C (compound 0.03 µM): 74.6% [middle of 10 runs] | viability, T/C (compound 0.0949 µM): 58.5% [middle of 10 runs] | viability, T/C (compound 0.3 µM): 16.5% [middle of 10 runs]

SMILES: Cn1ncnc1[C@H]1c2n[nH]c(=O)c3cc(F)cc(c23)N[C@@H]1c1ccc(F)cc1 + Cn1nnc2c(C(N)=O)ncn2c1=O
IC50 [1]: > 3000 nM | IC50 [2]: > 3000 nM | IC50 [3]: > 3000 nM | IC50 [4]: 1950 nM | IC50 [5]: 1240 nM | viability, T/C [6]: 99.5% | viability, T/C [7]: 93.1% | viability, T/C [8]: 87.3% | viability, T/C [9]: 75.5% | viability, T/C [10]: 67.6% | viability, T/C [11]: 51.1% | viability, T/C [12]: 102% | viability, T/C [13]: 89.7% | viability, T/C [14]: 87.7% | viability, T/C [15]: 73.9% | viability, T/C [16]: 67.8% | viability, T/C [17]: 50.2% | viability, T/C [18]: 94% | viability, T/C [19]: 88.7% | viability, T/C [20]: 85.8% | viability, T/C [21]: 76.6% | viability, T/C [22]: 66% | viability, T/C [23]: 52.2% | viability, T/C [24]: 86.4% | viability, T/C [25]: 74.4% | viability, T/C [26]: 77.9% | viability, T/C [27]: 68.3% | viability, T/C [28]: 62.3% | viability, T/C [29]: 43% | viability, T/C [30]: 74.4% | viability, T/C [31]: 71.8% | viability, T/C [32]: 70.4% | viability, T/C [33]: 65.9% | viability, T/C [34]: 54.7% | viability, T/C [35]: 34%
